Data as given in patent US9656962B2, “Ring-contracted morphinans and the use thereof” (Purdue Pharma L.P., priority 2013, dated 2017).

Assays:
Assay type in all cases: biochemical
[1] = target: T1, μ-opioid receptor (Homo sapiens (Human), UniProt P35372); experiment: μ-opioid receptor [35S]GTPγS functional assay, HEK-293 or CHO cells (Table 4); settings: for Emax: relative to DAMGO; for EC50: μ GTP, bound given in μM
Method: (§1) μ-Opioid Receptor Functional Assay Procedures: [^35S]GTPγS functional assays were conducted using freshly thawed μ-receptor membranes prepared in-house from a cell line expressing recombinant μ opioid receptor in a HEK-293, CHO or U-2 OS cell background, or purchased from a commercial source (Perkin Elmer, Shelton, Conn.; or DiscovRx, Fremont, Calif.). Assay reactions were prepared by sequentially adding the following reagents to binding buffer (100 mM NaCl, 10 mM MgCl2, 20 mM HEPES, pH 7.4) on ice (final concentrations indicated): membrane protein (0.026 mg/mL), saponin ([…]), GDP ([…]) and [^35S]GTPγS (0.20 nM; Perkin Elmer, Shelton, Conn.). The prepared membrane solution (190 μl/well) was transferred to 96-shallow well polypropylene plates containing 10 μl of 20× concentrated stock solutions of the agonist [D-Ala^2, N-methyl-Phe^4 Gly-ol^5]-enkephalin (DAMGO) prepared in dimethyl sulfoxide (DMSO). Plates were incubated for 30 min at about 25° C. with shaking Reactions were terminated by rapid filtration onto 96-well Unifilter GF/B filter plates (Perkin Elmer, Shelton, Conn.) using a 96-well tissue harvester (Perkin Elmer, Shelton, Conn.) followed by three filtration washes with 200 μl of ice-cold wash buffer (10 mM NaH2PO4, 10 mM Na2HPO4, pH 7.4). Filter plates were subsequently dried at 50° C. for 2-3 hours. BetaScint scintillation cocktail (Perkin Elmer, Shelton, Conn.) was added (50 μl/well) and plates were counted using a Packard Top-Count for 1 min/well. Data were analyzed using the sigmoidal dose-response curve fitting functions in GraphPad PRISM v. 3.0, or an in-house function for non-linear, sigmoidal dose-response curve-fitting. [^35S]GTPγS functional assays can also be conducted using freshly thawed μ-receptor membranes prepared from a cell line expressing recombinant μ opioid receptor in a CHO-K1 cell background.
(§2) μ GTP Emax (%) is the maximal effect elicited by a compound relative to the effect elicited by DAMGO, a standard μ agonist.
In TABLE 4, activity response of certain Compounds of the Invention to the μ- and κ-opioid receptors was determined as described above for functional assays using HEK-293 or CHO cells.

[2] = target: T1, μ-opioid receptor; experiment: μ-opioid receptor [35S]GTPγS functional assay, U-2 OS cells (Table 5); settings: for Emax: relative to DAMGO; for EC50: μ GTP
Method: as §1, §2

[3] = target: κ-opioid receptor (Homo sapiens (Human), UniProt P41145); experiment: κ-opioid receptor [35S]GTPγS functional assay, U-2 OS cells (Table 5); settings: for Emax: relative to U69,593; for EC50: κ GTP
Method: κ-Opioid Receptor Functional Assay Procedures: Functional [^35S]GTPγS binding assays were conducted as follows. κ opioid receptor membrane solution was prepared by sequentially adding final concentrations of 0.026 μg/μl κ membrane protein (in-house), 10 μg/mL saponin, 3 μM GDP and 0.20 nM [^35S]GTPγS to binding buffer (100 mM NaCl, 10 mM MgCl2, 20 mM HEPES, pH 7.4) on ice. The prepared membrane solution (190 μl/well) was transferred to 96-shallow well polypropylene plates containing 10 μl of 20× concentrated stock solutions of agonist prepared in DMSO. Plates were incubated for 30 min at a temperature of about 25° C. with shaking. Reactions were terminated by rapid filtration onto 96-well Unifilter GF/B filter plates (Perkin Elmer, Shelton, Conn.) using a 96-well tissue harvester (Packard) and followed by three filtration washes with 200 μl ice-cold binding buffer (10 mM NaH2PO4, 10 mM Na2HPO4, pH 7.4). Filter plates were subsequently dried at 50° C. for 2-3 hours. Fifty μl/well scintillation cocktail (Perkin Elmer, Shelton, Conn.) was added and plates were counted in a Packard Top-Count for 1 min/well.
κ GTP Emax (%) is the maximal effect elicited by a compound relative to the effect elicited by U69,593.
The following TABLE 5 provides results on the activity response of certain Compounds of the Invention at the μ- and κ-opioid receptors determined as described above using U-2 OS cells.

Row | Compound | Emax [1] [%] | EC50 [1] [µM] | Emax [2] [%] | EC50 [2] [µM] | Emax [3] [%] | EC50 [3] [nM] | EC50 ([2]; bound given in μM) [µM]
1 | O=C(NCCCN1CCOCC1)[C@@H]1C[C@]23CCN(CC4CC4)[C@H](Cc4ccc(O)cc42)[C@]3(O)C1 [Compound 85, (2R,3aS,4R,9bS)-12-(cyclopropyl-methyl)-3a,8-dihydroxy-N-(3-morpholinopropyl)-1,2,3,3a,4,5-hexahydro-4,9b-(epimino-ethano)cyclopenta[a]naphthalene-2-carboxamide] | -1 | > 20 |  |  |  |  | 
2 | O=C(N[C@H]1CC23CCN(CC4CC4)[C@H](Cc4ccc(O)cc42)[C@]3(O)C1)c1ccccc1 (stereo in doubt) [Compound 79, N-((2S,3aS,4R,9bS)-12-(cyclopropyl-methyl)-3a,8-dihydroxy-1,2,3,3a,4,5-hexahydro-4,9b-(epiminoethano)cyclo-penta[a]naphthalen-2-yl)benzamide] | -1 | > 20 |  |  |  |  | 
3 | CN(C)C(=O)[C@@H]1C[C@]23CCN(CC4CC4)[C@H](Cc4ccc(O)cc42)[C@]3(O)C1 [Compound 62, (2R,3aS,4R,9bS)-12-(cyclopropylmethyl)-3a,8-dihydroxy-N,N-dimethyl-1,2,3,3a,4,5-hexahydro-4,9b-(epiminoethano)cyclo-penta[a]naphthalene-2-carboxamide] |  |  | 25 ± 0.58 | 0.017 ± 0.00331 | 109 ± 3.67 | 23.6 ± 1.09 | 
4 | CN(CC(=O)O)C(=O)[C@@H]1C[C@]23CCN(CC4CC4)[C@H](Cc4ccc(O)cc42)[C@]3(O)C1 [Compound 66, 2-((2R,3aS,4R,9bS)-12-(cyclopropyl-methyl)-3a,8-dihydroxy-N-methyl-1,2,3,3a,4,5-hexahydro-4,9b-(epiminoethano)cyclopenta[a]naphthalene-2-carboxamido)acetic acid] |  |  | 15.5 ± 1.5 | 0.029 ± 0.00429 | 77.3 ± 0.88 | 168 ± 8.15 | 
5 | O=C(NCc1ccc(Cl)cc1Cl)[C@@H]1C[C@]23CCN(CC4CC4)[C@H](Cc4ccc(O)cc42)[C@]3(O)C1 [Compound 44, (2R,3aS,4R,9bS)-12-(cyclopropylmethyl)-N-(2,4-dichlorobenzyl)-3a,8-dihydroxy-1,2,3,3a,4,5-hexahydro-4,9b-(epimino-ethano)cyclopenta[a]naphthalene-2-carboxamide] |  |  | 28.3 ± 1.86 | 0.00375 ± 0.00035 | 94.7 ± 7.13 | 0.26 ± 0.033 | 
6 | CCN(CC)C(=O)[C@@H]1C[C@]23CCN(CC4CC4)[C@H](Cc4ccc(O)cc42)[C@]3(O)C1 [Compound 59, (2R,3aS,4R,9bS)-12-(cyclopropylmethyl)-N,N-diethyl-3a,8-dihydroxy-1,2,3,3a,4,5-hexahydro-4,9b-(epiminoethano)cyclo-penta[a]naphthalene-2-carboxamide] |  |  | 25.7 ± 0.33 | 0.0226 ± 0.00631 | 105 ± 4.33 | 26 ± 2.61 | 
7 | COc1ccc2c(c1)[C@]13CCN(CC4CC4)[C@H](C2)[C@]1(O)C[C@H](C(=O)N1CCCC1)C3 [Compound 19, ((2R,3aS,4R,9bS)-12-(cyclopropylmethyl)-3a-hydroxy-8-methoxy-1,2,3,3a,4,5-hexahydro-4,9b-(epiminoethano)cyclo-penta[a]naphthalene-2-yl)(pyrrolidin-1-yl)methanone] |  |  | 29.3 ± 5.93 | 2.96 ± 0.864 | 97.7 ± 0.67 | 4720 ± 150 | 
8 | O=C([C@H]1C[C@]23CCN(CC4CC4)[C@H](Cc4ccc(O)cc42)[C@]3(O)C1)N1CCCCC1 [Compound 57, ((2S,3aS,4R,9bS)-12-(cyclopropylmethyl)-3a,8-dihydroxy-1,2,3,3a,4,5-hexahydro-4,9b-(epiminoethano)cyclopenta-[a]naphthalen-2-yl)(piperidin-1-yl)methanone] |  |  | 37.7 ± 6.69 | 0.00279 ± 0.00076 | 90.3 ± 2.6 | 5.88 ± 0.79 | 
9 | COc1ccc2c(c1)[C@]13CCN(CC4CC4)[C@H](C2)[C@]1(O)C[C@H](N)C3 [Compound 21, (2R,3aS,4R,9bS)-2-amino-12-(cyclopropylmethyl)-8-methoxy-1,2,3,3a,4,5-hexahydro-4,9b-(epimino-ethano)cyclopenta[a]naphthalene-3a-ol] |  |  | 8.67 ± 1.76 |  | 90 ± 2.08 | 5590 ± 738 | > 20
10 | NC(=O)[C@@H]1C[C@]23CCN(CC(F)(F)F)[C@H](Cc4ccc(O)cc42)[C@]3(O)C1 [Compound 75, (2R,3aS,4R,9bS)-3a,8-dihydroxy-12-(2,2,2-tritluoroethyl)-1,2,3,3a,4,5-hexahydro-4,9b-(epiminoethano)cyclo-penta[a]naphthalene-2-carboxamide] |  |  | 2 |  | 69 ± 6.03 | 1260 ± 74.6 | > 20
11 | N[C@H]1CC23CCN(CC4CC4)[C@H](Cc4ccc(O)cc42)[C@]3(O)C1 (stereo in doubt) [Compound 29, (2S,3aS,4R,9bS)-2-amino-12-(cyclopropylmethyl)-1,2,3,3a,4,5-hexahydro-4,9b-(epiminoethano)-cyclopenta[a]naphthalene-3a,8-diol] |  |  | 22 ± 1.73 | 0.00778 ± 0.00163 | 107 ± 3.18 | 0.62 ± 0.04 | 
12 | CC(C)CNC(=O)[C@@H]1C[C@]23CCN(CC4CC4)[C@H](Cc4ccc(O)cc42)[C@]3(O)C1 [Compound 35, (2R,3aS,4R,9bS)-12-(cyclopropylmethyl)-3a,8-dihydroxy-N-isobutyl-1,2,3,3a,4,5-hexahydro-4,9b-(epiminoethano)cyclo-penta[a]naphthalene-2-carboxamide] |  |  | 29.7 ± 0.33 | 0.0197 ± 0.00527 | 111 ± 2.96 | 7.75 ± 0.41 | 
13 | O=C([C@@H]1C[C@]23CCN(CC4CC4)[C@H](Cc4ccc(O)cc42)[C@]3(O)C1)N1CCOCC1 [Compound 58, ((2R,3aS,4R,9bS)-12-(cyclopropylmethyl)-3a,8-dihydroxy-1,2,3,3a,4,5-hexahydro-4,9b-(epiminoethano)cyclopenta-[a]naphthalen-2-yl)(morpholino)-methanone] |  |  | 21.7 ± 5.49 | 0.0143 ± 0.00543 | 93.7 ± 4.48 | 24.3 ± 5.67 | 
14 | COc1ccc2c(c1)[C@]13CCN(CC4CC4)[C@H](C2)[C@]1(O)C[C@H](C(=O)O)C3 [Compound 14, (2R,3aS,4R,9bS)-12-(cyclopropylmethyl)-3a-hydroxy-8-methoxy-1,2,3,3a,4,5-hexahydro-4,9b-(epiminoethano)-cyclopenta[a]naphthalene-2-carboxylic acid] |  |  | 26.7 ± 2.4 | 0.126 ± 0.0377 | 100 ± 2.52 | 147 ± 11.6 | 
15 | O=C(NCCc1ccccc1)[C@@H]1C[C@]23CCN(CC4CC4)[C@H](Cc4ccc(O)cc42)[C@]3(O)C1 [Compound 50, (2R,3aS,4R,9bS)-12-(cyclopropylmethyl)-3a,8-dihydroxy-N-phenethyl-1,2,3,3a,4,5-hexahydro-4,9b-(epiminoethano)-cyclopenta[a]naphthalene-2-carboxamide] |  |  | 23.3 ± 1.86 | 0.0069 ± 0.00054 | 107.7 ± 0.88 | 1.95 ± 0.33 | 
16 | O=C([C@@H]1C[C@]23CCN(CC4CC4)[C@H](Cc4ccc(O)cc42)[C@]3(O)C1)N1CCCCC1 [Compound 56, ((2R,3aS,4R,9bS)-12-(cyclopropylmethyl)-3a,8-dihydroxy-1,2,3,3a,4,5-hexahydro-4,9b-(epiminoethano)cyclopenta-[a]naphthalen-2-yl)(piperidin-1-yl)methanone] |  |  | 16 ± 1.53 | 0.0104 ± 0.00203 | 97.8 ± 3.67 | 20.8 ± 1.79 | 
17 | NC(=O)[C@H]1C[C@]23CCN(CC(F)(F)F)[C@H](Cc4ccc(O)cc42)[C@]3(O)C1 [Compound 76, (2S,3aS,4R,9bS)-3a,8-dihydroxy-12-(2,2,2-trifluoroethyl)-1,2,3,3a,4,5-hexahydro-4,9b-(epiminoethano)cyclo-penta[a]naphthalene-2-carboxamide] |  |  | 2 |  | 81 ± 6.66 | 923 ± 31.9 | > 20
